# Measurements reported in patent US12486267B2, “Imidazo[1,2-A]pyridine and [1,2,4]triazolo[1,5-A]pyridine derivatives as TLR9 inhibitors for the treatment of fibrosis” (BRISTOL-MYERS SQUIBB COMPANY, priority 2020, dated 2025).
# Key:
# Assay type in all cases: cell-based
# human TLR8 = target: T1, human TLR8 (Homo sapiens, UniProt Q9NR97); experiment: TLR8 inhibition reporter assay (HEK-Blue cells, SEAP reporter); conditions: HEK-Blue cells overexpressing human TLR8; stimulated with R848 15.9 μM; 22 hour incubation; SEAP readout
# T1 sequence (Q9NR97 27-1041): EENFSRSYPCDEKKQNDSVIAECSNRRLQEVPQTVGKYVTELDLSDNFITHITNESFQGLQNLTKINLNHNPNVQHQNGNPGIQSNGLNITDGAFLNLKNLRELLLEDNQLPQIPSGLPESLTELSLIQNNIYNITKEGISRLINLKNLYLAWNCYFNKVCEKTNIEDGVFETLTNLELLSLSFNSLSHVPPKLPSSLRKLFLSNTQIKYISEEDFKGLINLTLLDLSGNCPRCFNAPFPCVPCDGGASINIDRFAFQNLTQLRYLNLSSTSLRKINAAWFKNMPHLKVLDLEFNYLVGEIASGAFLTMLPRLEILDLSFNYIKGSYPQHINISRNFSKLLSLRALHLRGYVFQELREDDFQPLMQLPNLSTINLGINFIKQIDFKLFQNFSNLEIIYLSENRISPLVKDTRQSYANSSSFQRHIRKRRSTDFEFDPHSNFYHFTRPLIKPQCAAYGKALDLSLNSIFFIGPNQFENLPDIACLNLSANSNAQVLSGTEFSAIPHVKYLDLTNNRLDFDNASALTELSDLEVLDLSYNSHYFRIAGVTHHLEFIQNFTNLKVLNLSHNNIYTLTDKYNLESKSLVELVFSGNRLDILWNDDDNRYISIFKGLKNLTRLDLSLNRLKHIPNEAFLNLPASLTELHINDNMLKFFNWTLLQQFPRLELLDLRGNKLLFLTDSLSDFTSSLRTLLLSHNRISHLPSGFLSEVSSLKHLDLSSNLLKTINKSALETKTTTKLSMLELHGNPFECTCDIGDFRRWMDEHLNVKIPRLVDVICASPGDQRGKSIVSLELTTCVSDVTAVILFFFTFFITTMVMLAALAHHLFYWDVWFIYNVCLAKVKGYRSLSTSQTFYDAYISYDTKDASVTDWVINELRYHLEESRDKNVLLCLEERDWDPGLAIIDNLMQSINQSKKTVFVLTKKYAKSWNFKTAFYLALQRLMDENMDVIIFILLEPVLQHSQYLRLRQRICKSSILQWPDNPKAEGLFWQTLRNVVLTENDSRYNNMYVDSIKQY
# Outline: (§1)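 HEK-Blue cells with an NF-κB/AP-1-driven SEAP reporter were pre-treated 30 min at room temperature with compound (0.05 nM–50 μM), then stimulated with gardiquimod 7.5 μM (TLR7), R848 15.9 μM (TLR8) or ODN2006 5 nM (TLR9). After 22 h at 37 °C, SEAP was read; % inhibition was referenced to agonist+DMSO and known-inhibitor wells.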
# human TLR7 = target: T2, human TLR7 (Homo sapiens, UniProt Q9NYK1); experiment: TLR7 inhibition reporter assay (HEK-Blue cells, SEAP reporter); conditions: HEK-Blue cells overexpressing human TLR7; stimulated with gardiquimod 7.5 μM; 22 hour incubation; SEAP readout
# T2 sequence (Q9NYK1 27-1049): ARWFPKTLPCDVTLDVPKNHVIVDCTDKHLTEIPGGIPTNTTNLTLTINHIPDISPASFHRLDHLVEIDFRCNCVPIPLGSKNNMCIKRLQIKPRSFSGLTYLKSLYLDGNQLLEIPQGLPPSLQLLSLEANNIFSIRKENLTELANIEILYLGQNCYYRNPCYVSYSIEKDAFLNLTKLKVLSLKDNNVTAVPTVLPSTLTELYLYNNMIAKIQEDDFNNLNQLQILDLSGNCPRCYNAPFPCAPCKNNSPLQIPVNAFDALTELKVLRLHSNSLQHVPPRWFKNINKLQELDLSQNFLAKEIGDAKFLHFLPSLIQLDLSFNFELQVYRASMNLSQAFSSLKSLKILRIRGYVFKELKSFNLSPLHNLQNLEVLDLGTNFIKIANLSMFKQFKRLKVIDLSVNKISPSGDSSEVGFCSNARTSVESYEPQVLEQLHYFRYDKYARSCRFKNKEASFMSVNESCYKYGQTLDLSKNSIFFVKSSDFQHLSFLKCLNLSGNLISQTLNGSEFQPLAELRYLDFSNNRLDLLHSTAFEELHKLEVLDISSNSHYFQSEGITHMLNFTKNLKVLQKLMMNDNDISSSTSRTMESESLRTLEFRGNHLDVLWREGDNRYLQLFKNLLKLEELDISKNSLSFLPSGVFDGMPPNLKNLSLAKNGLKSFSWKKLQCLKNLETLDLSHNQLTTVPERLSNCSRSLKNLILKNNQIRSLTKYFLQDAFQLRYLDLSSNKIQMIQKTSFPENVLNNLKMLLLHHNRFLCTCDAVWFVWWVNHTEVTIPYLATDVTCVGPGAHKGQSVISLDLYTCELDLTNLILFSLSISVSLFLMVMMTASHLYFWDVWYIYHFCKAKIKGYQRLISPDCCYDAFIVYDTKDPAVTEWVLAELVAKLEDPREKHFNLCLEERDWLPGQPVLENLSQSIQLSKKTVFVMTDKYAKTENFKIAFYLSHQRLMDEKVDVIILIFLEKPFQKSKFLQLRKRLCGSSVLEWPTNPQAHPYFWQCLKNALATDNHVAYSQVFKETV
# Outline: as §1
# human TLR9 = target: T3, human TLR9 (Homo sapiens, UniProt Q9NR96); experiment: TLR9 inhibition reporter assay (HEK-Blue cells, SEAP reporter); conditions: HEK-Blue cells overexpressing human TLR9; stimulated with ODN2006 5 nM; 22 hour incubation; SEAP readout
# T3 sequence (Q9NR96 26-1032): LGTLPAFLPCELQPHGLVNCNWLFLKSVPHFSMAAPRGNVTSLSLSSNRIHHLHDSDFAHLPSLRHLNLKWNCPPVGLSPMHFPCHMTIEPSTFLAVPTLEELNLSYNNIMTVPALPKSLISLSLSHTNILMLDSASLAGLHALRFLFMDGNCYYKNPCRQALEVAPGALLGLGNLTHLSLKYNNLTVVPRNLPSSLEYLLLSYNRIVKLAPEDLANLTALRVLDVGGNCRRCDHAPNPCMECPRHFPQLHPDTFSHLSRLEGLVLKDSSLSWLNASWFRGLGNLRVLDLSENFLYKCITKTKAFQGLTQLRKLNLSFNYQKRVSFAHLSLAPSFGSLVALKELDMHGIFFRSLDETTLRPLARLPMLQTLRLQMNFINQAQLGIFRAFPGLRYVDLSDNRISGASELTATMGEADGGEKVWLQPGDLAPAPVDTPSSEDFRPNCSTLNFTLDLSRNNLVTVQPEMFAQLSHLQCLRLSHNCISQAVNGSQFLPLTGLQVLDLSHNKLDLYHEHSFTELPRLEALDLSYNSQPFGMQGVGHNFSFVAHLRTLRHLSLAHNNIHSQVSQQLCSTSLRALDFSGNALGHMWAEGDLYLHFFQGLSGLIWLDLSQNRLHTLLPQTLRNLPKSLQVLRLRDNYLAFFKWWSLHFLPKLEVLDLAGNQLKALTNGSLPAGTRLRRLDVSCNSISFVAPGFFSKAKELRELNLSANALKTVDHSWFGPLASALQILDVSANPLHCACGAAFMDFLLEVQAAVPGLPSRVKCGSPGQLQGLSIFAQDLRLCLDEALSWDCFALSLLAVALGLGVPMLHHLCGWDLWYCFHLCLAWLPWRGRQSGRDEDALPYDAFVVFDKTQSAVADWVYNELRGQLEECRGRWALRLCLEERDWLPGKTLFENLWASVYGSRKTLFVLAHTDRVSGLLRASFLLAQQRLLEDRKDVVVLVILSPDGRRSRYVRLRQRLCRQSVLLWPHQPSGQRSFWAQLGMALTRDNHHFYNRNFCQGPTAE
# Outline: as §1
compound,measurement,setting,value
"COc1ccc(-c2cn3c(n2)CCC(C2CCN(C4CCN(C(C)C)CC4)CC2)C3)cc1OC (single isomer, unassigned) [Example 36, 2-(3,4-dimethoxyphenyl)-6-(1′-isopropyl-[1,4′-bipiperidin]-4-yl)-5,6,7,8-tetrahydroimidazo[1,2-a]pyridine]",IC50,human TLR8,> 50000 nM
same,IC50,human TLR7,7800 nM
same,IC50,human TLR9,57 nM
"COc1ccc(-c2cn3cc(C4CCN(C5CCN(C6CC6)CC5)CC4)ccc3n2)cc1OC [Example 10, 6-(1′-cyclopropyl-[1,4′-bipiperidin]-4-yl)-2-(3,4-dimethoxyphenyl)imidazo[1,2-a]pyridine]",IC50,human TLR8,> 50000 nM
same,IC50,human TLR7,5200 nM
same,IC50,human TLR9,129 nM
"COc1ccc(-c2cn3cc(C4CCN(C5CCN(C6CC6)CC5)CC4)cc(C)c3n2)cc1OC [Example 1, 6-(1′-cyclopropyl-[1,4′-bipiperidin]-4-yl)-2-(3,4-dimethoxyphenyl)-8-methylimidazo [1,2-a]pyridine]",IC50,human TLR8,> 50000 nM
same,IC50,human TLR7,14000 nM
same,IC50,human TLR9,56 nM
"CS(=O)(=O)c1ccc(-c2cn3cc(C4CCN(C5CCN(C6COC6)CC5)CC4)cc(F)c3n2)cc1 [Example 111, 8-fluoro-2-(4-(methylsulfonyl)phenyl)-6-(1′-(oxetan-3-yl)-[1,4′-bipiperidin]-4-yl)imidazo[1,2-a]pyridine]",IC50,human TLR8,> 50000 nM
same,IC50,human TLR7,13000 nM
same,IC50,human TLR9,235 nM
"COc1ccc(-c2cn3c(n2)CC[C@H](C2CCN(C4CC5CCC(C4)N5CC(C)C)CC2)C3)cc1OC (single isomer, unassigned) [Example 75]",IC50,human TLR8,> 25000 nM
same,IC50,human TLR7,2900 nM
same,IC50,human TLR9,34 nM
"Cc1cc(-c2ccc(N3CCN(C4CCOCC4)CC3)cc2)cn2cc(-c3ccc(S(C)(=O)=O)cc3)nc12 [Example 104, 8-methyl-2-(4-(methylsulfonyl)phenyl)-6-(4-(4-(tetrahydro-2H-pyran-4-yl)piperazin-1-yl)phenyl)imidazo[1,2-a]pyridine]",IC50,human TLR8,> 50000 nM
same,IC50,human TLR7,5100 nM
same,IC50,human TLR9,451 nM
"COc1ccc(-c2cn3cc(C4CCN(C5CCN(CC(C)C)CC5)CC4)cc(C)c3n2)cc1OC [Example 3, 2-(3,4-dimethoxyphenyl)-6-(1′-isobutyl-[1,4′-bipiperidin]-4-yl)-8-methylimidazo[1,2-a]pyridine]",IC50,human TLR8,> 50000 nM
same,IC50,human TLR7,1800 nM
same,IC50,human TLR9,32 nM
"COc1ccc(-c2cn3cc(C4C[C@H]5CC[C@@H](C4)N5C4CCN(C5CC5)CC4)cc(C)c3n2)cc1OC (mixture of isomers) [Example 24, 6-(8-(1-cyclopropylpiperidin-4-yl)-8-azabicyclo[3.2.1]octan-3-yl)-2-(3,4-dimethoxyphenyl)-8-methylimidazo[1,2-a]pyridine]",IC50,human TLR8,> 50000 nM
same,IC50,human TLR7,2900 nM
same,IC50,human TLR9,102 nM
"CS(=O)(=O)c1ccc(-c2cn3cc(C4CCN(C5CCN(C6CCOCC6)CC5)CC4)cc(F)c3n2)cc1 [Example 112, 8-fluoro-2-(4-(methylsulfonyl)phenyl)-6-(1′-(tetrahydro-2H-pyran-4-yl)-[1,4′-bipiperidin]-4-yl)imidazo[1,2-a]pyridine]",IC50,human TLR8,> 50000 nM
same,IC50,human TLR7,4500 nM
same,IC50,human TLR9,98 nM
"COc1ccc(-c2cn3cc(C4CCN(C5CC6CCC(C5)N6CC(C)C)CC4)cc(C)c3n2)cc1OC (single isomer, unassigned) [Example 18, 2-(3,4-dimethoxyphenyl)-6-(1-(8-isobutyl-8-azabicyclo[3.2.1]octan-3-yl)piperidin-4-yl)-8-methylimidazo[1,2-a]pyridine]",IC50,human TLR8,> 50000 nM
same,IC50,human TLR7,3300 nM
same,IC50,human TLR9,48 nM
"COc1ccc(-c2cn3c(n2)CC[C@H](C2CCN(C4CC5CCC(C4)N5CC(C)C)CC2)C3)cc1OC (single isomer, unassigned) [Example 76]",IC50,human TLR8,> 25000 nM
same,IC50,human TLR7,1600 nM
same,IC50,human TLR9,52 nM
"CS(=O)(=O)c1ccc(-c2cn3cc(C4CCN(C5CCN(CC6CC6)CC5)CC4)cc(F)c3n2)cc1 [Example 109, 6-(1′-(cyclopropylmethyl)-[1,4′-bipiperidin]-4-yl)-8-fluoro-2-(4-(methylsulfonyl)phenyl)imidazo[1,2-a]pyridine]",IC50,human TLR8,> 50000 nM
same,IC50,human TLR7,1300 nM
same,IC50,human TLR9,4.3 nM
"CS(=O)(=O)c1ccc(-c2cn3c(n2)CC[C@@H](C2CCN(C4CC5CCC(C4)N5CC4CC4)CC2)C3)cc1 (single isomer, unassigned) [Example 140]",IC50,human TLR8,> 50000 nM
same,IC50,human TLR7,> 50000 nM
same,IC50,human TLR9,352 nM
"COc1ccc(-c2cn3cc(C4CCN(C5CC6CCC(C5)N6C(C)C)CC4)cc(C)c3n2)cc1OC (single isomer, unassigned) [Example 23, 2-(3,4-dimethoxyphenyl)-6-(1-(8-isopropyl-8-azabicyclo[3.2.1]octan-3-yl)piperidin-4-yl)-8-methylimidazo[1,2-a]pyridine]",IC50,human TLR8,> 50000 nM
same,IC50,human TLR7,31000 nM
same,IC50,human TLR9,242 nM
